Assays:
[1] = test system: venous thrombus; assay: Rabbit ear thrombus model, topical low-molecular-weight heparin therapy; assay type: in vivo, New Zealand rabbit; conditions: 48 hours; for state of thrombus in blood vessel (slice, FIG. 7): 300 U/kg topical
Experimental: An experimental method: • A topical injection of thrombin is used to establish an animal model of a rabbit ear thrombus: hair of an ear of the New Zealand rabbit is carefully shaven off, a blood vessel section from an external ear vein with a length of about 2 cm and having fewer branches is selected, 40 U of the thrombin is injected into the blood vessel section, and a hemostatic clip is used to block a blood flow of the blood vessel section at a proximal end of a heart. After 2 hours, the blood is completely coagulated to form a venous thrombus, and the hemostatic clip is then loosen. A length of the venous thrombus is measured and recorded, and the rabbit ear successfully modeled is sliced into a slice by the cryostat microtome. After the slice is stained by a hematoxylin and eosin (HE) tissue staining method and fixed by the resin, and the slice is mounted for observation. With respect to the various administration methods, the rabbits successfully modeled are divided into a therapy group for a proximal venous thrombus and a therapy group for a distal venous thrombus, and the rabbits are topically treated by the low-molecular-weight heparin (300 U/kg rabbit body weight) for therapy. […] A pretreatment method is the same as described with respect to in vitro.

[2] = Staining of topical penetration sites of the skin with gentian violet solution; design: species or system nude mouse
Experimental: Staining of topical penetration sites of the skin: the nude mouse skin topically pretreated by three groups, including the sonophoresis group, the 2 mg spicule group, and the group using sonophoresis and then using the spicules (the method is the same as the aforementioned method), a gentian violet solution is added into the donor compartment, stained for 24 hours, and washed by an ethanol solution, and the residue liquid on the surface is absorbed with absorbent paper, a penetration situation of a surface of the stratum corneum layer for the staining solution is observed, the stratum corneum layer and the epidermal layer of the skin are then scrapped by a blade, and a penetration situation of the dermis layer for the staining solution is observed.

| Compound | state of thrombus in blood vessel (slice, FIG. 7) ([1]; sonophoresis then spicules) | state of thrombus in blood vessel (slice, FIG. 7) ([1]; spicules alone) | thrombus dissolvability degree compared with intravenous injection (FIG. 8B) ([1]; distal venous thrombus, sonophoresis then spicules at distal end) | thrombus length variation (FIG. 8A) ([1]; proximal venous thrombus, sonophoresis then spicules) | infiltration of staining solution into the dermis layer ([2]; sonophoresis alone or spicules alone, stained 24 hours (FIGS. 6D and 6E)) | infiltration of staining solution into the dermis layer ([2]; sonophoresis and spicules, stained 24 hours, stratum corneum and epidermal layer scraped off (FIG. 6F)) |
| --- | --- | --- | --- | --- | --- | --- |
| dalteparin [low-molecular-weight heparin] | almost completely dissolved | not completely dissolved | no significant difference | basically dissolved |  |  |
| CN(C)c1ccc(C(=C2C=CC(=[N+](C)C)C=C2)c2ccc(N(C)C)cc2)cc1 [staining solution, gentian violet] |  |  |  |  | almost no residue staining solution in the dermis layer | a large amount of the staining solution can still infiltrate into the dermis layer |

— patent US12691175B2, “Drug transdermal delivery system” (Xiamen University, priority 2019, dated 2026)
